According to US7138242B2, “Olfactory receptor expression libraries and methods of making and using them” (Johns Hopkins University, priority 1998, dated 2006):
Residue numbers refer to the chain shown, from its start.

Assays:
[1] = target: T1, full-length rat I7 olfactory receptor fused to rhodopsin N-terminus (Rattus norvegicus, UniProt P23270); experiment: Ca2+ imaging, HEK-293 cells expressing translocation domain (rhodopsin N-terminus) fused to full-length rat I7; assay type: cell-based
T1 construct: expressed in transfected cells; host or cells: HEK-293 with Gα15,16
T1 sequence (P23270 1-327): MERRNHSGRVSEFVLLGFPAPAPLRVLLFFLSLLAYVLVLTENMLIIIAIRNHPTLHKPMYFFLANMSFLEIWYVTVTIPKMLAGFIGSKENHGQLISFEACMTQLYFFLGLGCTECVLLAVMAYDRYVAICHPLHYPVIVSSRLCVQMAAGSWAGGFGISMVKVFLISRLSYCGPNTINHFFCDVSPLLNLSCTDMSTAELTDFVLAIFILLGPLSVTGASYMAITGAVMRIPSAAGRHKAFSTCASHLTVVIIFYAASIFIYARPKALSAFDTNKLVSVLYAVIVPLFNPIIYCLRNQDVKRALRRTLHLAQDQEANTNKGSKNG

[2] = system: Rho/M4NC-mouse I7 transmembrane II–VII chimeric receptor; experiment: Ca2+ imaging, Rho/M4NC-mouse I7 TM II–VII chimeric receptor in HEK-293 cells; assay type: cell-based; details: 10 μM
[3] = system: Rho/M4NC-β2 TM II–VII (TM II–VII region from the β2-adrenergic receptor in pCMV-Rho/M4NC); experiment: Single-cell FURA-2 Ca2+ imaging, HEK-293 cells co-transfected with Rho/M4NC-β2 TM II–VII and Gα15,16; assay type: cell-based, human; details: bath application; cells co-transfected with Gα15,16
Method: HEK-293 cells (obtained from the ATCC) were grown in DMEM supplemented with 10% fetal bovine serum, penicillin (100 U/ml), streptomycin (100 μg/ml) and L-glutamine (2 mM) in 5% CO2. […] After 5 to 7 hr incubation, the cells were washed once with PBS containing 0.5 mM EDTA and 10% DMSO, then with PBS before continuing growth in regular media for 40–50 hr.
Efficient screening of expressed olfactory receptors with a large number of ligands by functional analysis requires a robust and sensitive assay system. […] In this reporter system, (olfactory) receptor activation leads to the generation of an IP3-mediated increase in intracellular Ca^2+, which can be measured at the single-cell level with high sensitivity and good temporal resolution using the dye FURA-2 and radiofluorometric imaging.
A construct with the TM II–VII region from the β2-adrenergic receptor inserted in the pCMV-Rho/M4NC vector (Rho/M4NC-β2 TM II–VII) was co-transfected with Gα15,16 into HEK-293 cells. […] Images of fluorescent cells were obtained on a Zeiss 510 confocal microscope with excitation at 488 nm.
These transfected cells were then tested for their ability to functionally respond to ligand-receptor binding. The ligand, the adrenergic agonist isoproterenol, was “bath” applied to the transfected cells and single cell Ca^2+-imaging was performed. Cells were pre-loaded with the Ca^2+-sensitive fluorescent dye FURA-2 AM (Molecular Probes) by bathing in serum-free DMEM containing 4 μM of the membrane permeant chemical for 1 hr at 37° C., then washed with a standard bath solution (130 mM NaCl, 2 mM CaCl2, 5 mM KCl, 10 mM glucose, 10 mM Na.HEPES/pH 7.4 at room temperature). […] Acetylcholine was applied at the end of each experiment at 10 μM for 15–20 seconds. […] At 5-second intervals, the cells were sequentially illuminated for less than 100 ms, first at 340 nm and then at 380 nm. Fluorescence emission at 510 nm was monitored for each excitation wavelength via an intensified CCD camera. Averaged pixel intensities within 40 to 100 regions of interest, corresponding to 40 to 100 individual cells, were digitized and stored on a computer. Attofluor-Ratiovision software (Atto Instruments) was used to determine the Ca^2+-dependent fluorescence signal expressed as the F340/F380 ratio.

[4] = system: Rho/M4NC-ratI7 TM II–VII chimeric receptor; experiment: Ca2+ imaging, HEK-293 cells co-expressing Rho/M4NC-ratI7 TM II–VII chimeric construct and Gα15,16; assay type: cell-based, rat; details: for relative Ca2+ response, octanal vs heptanal: identical experiments to mouse I7 chimera
Method: HEK-293 cells (obtained from the ATCC) were grown in DMEM supplemented with 10% fetal bovine serum, penicillin (100 U/ml), streptomycin (100 μg/ml) and L-glutamine (2 mM) in 5% CO2. Before transfection, the cells were seeded onto poly-L-lysine-coated 10.5×35×0.17 mm glass coverslips (Bellco) placed in the 60 mm culture dishes. Calcium phosphate-mediated transfections were performed in a 60 mm dish with 3 to 4 μg of receptor construct DNA, 1 μg of pCIS Gα 15 and Gα16 expression vector (Offermanns (1995) supra). 2 μg of pBluescript carrier DNA, and 0.3 μg of pRSV-T antigen expression vector (Gorman (1990) DNA and Protein Eng. Tech. 2:3–9). After 5 to 7 hr incubation, the cells were washed once with PBS containing 0.5 mM EDTA and 10% DMSO, then with PBS before continuing growth in regular media for 40–50 hr.
Efficient screening of expressed olfactory receptors with a large number of ligands by functional analysis requires a robust and sensitive assay system. Although the established role of cAMP in olfactory signaling offers a biochemical approach involving measurement of cAMP production in response to odorant stimulation, an alternative, rapid assay is to co-express the cloned olfactory receptors with G protein Gα15,16 subunits (see, e.g., Offermanns (1995) J. Biol. Chem. 270:15175–15180), which can promiscuously couple 7-transmembrane domain receptors that normally signal through other second messengers to the PIP2 pathway. In this reporter system, (olfactory) receptor activation leads to the generation of an IP3-mediated increase in intracellular Ca^2+, which can be measured at the single-cell level with high sensitivity and good temporal resolution using the dye FURA-2 and radiofluorometric imaging. These attributes were able to compensate for the low transfection efficiency in transient expression systems that would hinder more traditional biochemical assays.
These transfected cells were then tested for their ability to functionally respond to ligand-receptor binding. The ligand, the adrenergic agonist isoproterenol, was “bath” applied to the transfected cells and single cell Ca^2+-imaging was performed. Cells were pre-loaded with the Ca^2+-sensitive fluorescent dye FURA-2 AM (Molecular Probes) by bathing in serum-free DMEM containing 4 μM of the membrane permeant chemical for 1 hr at 37° C., then washed with a standard bath solution (130 mM NaCl, 2 mM CaCl2, 5 mM KCl, 10 mM glucose, 10 mM Na.HEPES/pH 7.4 at room temperature). For each experiment, a glass coverslip with FURA-2 loaded HEK 293 cells was introduced into an open-topped, longitudinal microperfusion chamber (300 μl bath volume mounted on a Zeiss Axiovert 135 microscope equipped with an F Fluar 40×/1.30 oil-immersion lens. The cells were superfused with test solutions typically for 30 to 40 seconds (5 ml/application) and washed out with 5 ml of bath solution at the end of each application. Each test solution was freshly diluted and manually applied with a micropipette into the chamber. Because of this manual procedure, there could be several seconds of delay in actual application from electronic tick marks used to define the beginning of application in each graph. At the same time, the solution flow might not be completely laminar. In most cases, the onset of Ca2+ rise in response to a specific solution occurred within 15 seconds of the beginning of solution application, though longer delays were sometimes observed. Acetylcholine was applied at the end of each experiment at 10 μM for 15–20 seconds. Ratiometric Ca^2+ measurements were performed as described by Grynkiewicz (1985) 260:3440–3450, with modifications using the Zeiss/Attofluor-Ratiovision imaging system. At 5-second intervals, the cells were sequentially illuminated for less than 100 ms, first at 340 nm and then at 380 nm. Fluorescence emission at 510 nm was monitored for each excitation wavelength via an intensified CCD camera. […]

[5] = target: T2, full-length rat I7 receptor, residue 206 valine/isoleucine substitution (Rattus norvegicus, UniProt P23270, V206I); experiment: Ca2+ imaging, full-length rat I7 receptor with valine/isoleucine substitution at residue 206; assay type: cell-based; details: heptanal vs octanal
T2 construct: expressed in transfected cells; not repeated
T2 sequence (P23270 1-327 V206I): T1 sequence (P23270 1-327) with V206I

[6] = target: T3, full-length mouse I7 receptor, residue 206 valine/isoleucine substitution (Mus musculus, UniProt Q9QWU6, I206V); experiment: Ca2+ imaging, full-length mouse I7 receptor with valine/isoleucine substitution at residue 206; assay type: cell-based; details: heptanal vs octanal
T3 construct: expressed in transfected cells; not repeated
T3 sequence (Q9QWU6 1-327 I206V): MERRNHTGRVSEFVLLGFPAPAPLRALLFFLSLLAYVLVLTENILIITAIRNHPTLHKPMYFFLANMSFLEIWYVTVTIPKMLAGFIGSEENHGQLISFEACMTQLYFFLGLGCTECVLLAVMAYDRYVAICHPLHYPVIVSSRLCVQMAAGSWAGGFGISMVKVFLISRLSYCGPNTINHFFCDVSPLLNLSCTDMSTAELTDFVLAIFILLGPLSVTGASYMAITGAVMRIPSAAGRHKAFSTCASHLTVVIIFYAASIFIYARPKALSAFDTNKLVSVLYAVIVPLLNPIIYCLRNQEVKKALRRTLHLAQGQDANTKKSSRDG

Row | intracellular Ca2+ response ([1]; 30 μM) | ligand preference [5] | intracellular Ca2+ response ([1]; 1 μM) | ligand preference [6] | SMILES | intracellular Ca2+ response [2] | intracellular Ca2+ response (FURA-2 F340/F380) [3] | intracellular Ca2+ response ([4]; 10 μM) | intracellular Ca2+ response ([4]; 30 μM) | relative Ca2+ response, octanal vs heptanal [4] | Ca2+ response to a second application ([4]; second application, even at 30 μM (desensitization)) | dependence of the Ca2+ response on Gα15,16 ([4]; with vs without Gα15,16)
1 | small response | preferentially recognize heptanal | – | – | CCCCCCC=O [heptanal] | responded only to heptanal | no effect | not 10 μM | responded to 30 μM | responded better to octanal than to heptanal | – | –
2 | – | – | responded | preferentially recognize octanal | CCCCCCCC=O [octanal] | – | no effect | Ca^2+ transient was observed | – | responded better to octanal than to heptanal | little or no effect | required the presence of Gα15,16
